# Reference: patent US5013542A, “Method to inhibit adhesion of disease-causing microorganisms to teeth” (Forsyth Dental Infirmary for Children, priority 1988, dated 1991)
# Where no end group is shown, it is not given here.
# Tests used:
# Assay in all cases: Adhesion of radioactively labeled bacteria to treated hydroxyapatite (HA)
# Type in all cases: cell-based
# [1] = test system: Bacteroides gingivalis
# Procedure: (§1) PRP-1 and PRP-1(Tl) were investigated for their abilities to promote adhesion of bacteria to HA. Essentially, the method is to treat HA samples with nothing (negative control), saliva (positive control), or the respective proteins or peptides. The excess agent is removed by washing, and suspensions of radioactively labeled bacteria are added to the treated HA. After a suitable time, the excess bacteria are removed by washing and those remaining adsorbed to the HA are counted in a scintillation counter. In the table of results, bacterial adsorption to saliva-treated HA is considered to be 100%, and adsorption to PRP-1 or PRP-1(Tl)-treated HA expressed as a percentage of this reference value. This approach is necessary because of the diverse behaviors of different bacteria.
# [2] = test system: Streptococcus sanguis
# Procedure: as §1
# [3] = test system: Streptococcus mitis
# Procedure: as §1
# [4] = test system: Streptococcus mutans
# Procedure: as §1
# [5] = test system: Actinomyces viscosus
# Procedure: as §1
# [6] = HA treated with the protein/peptide, saliva-treated HA = 100%
substance,measurement,setting,value
"PRP-1(T1): residues 1-30, highly acidic phosphoserine-containing amino-terminal segment of PRP-1 obtained by tryptic digestion at ARG(30) (QDLDEDVSQEDVPLVISDGGDSEQFIDEER; also: phosphoserine-containing, positions not given here; UniProt P02810 17-46, looked up, fragment)",adhesion of organism to treated HA (in words),"[1]; B. gingivalis, versus saliva-treated HA",significantly and profoundly depressed
same,PERCENT ADHESION COMPARED TO SALIVA-TREATED HA,"[1]; Bacteroides gingivalis, HA treated with the protein/peptide, saliva-treated HA = 100%",20%
same,adhesion of organism to treated HA (in words),"[2]; S. sanguis, versus saliva-treated HA",significantly and profoundly depressed
same,PERCENT ADHESION COMPARED TO SALIVA-TREATED HA,"[2]; Streptococcus sanguis, HA treated with the protein/peptide, saliva-treated HA = 100%",4%
same,PERCENT ADHESION COMPARED TO SALIVA-TREATED HA,[3]; [6],26%
same,adhesion of organism to treated HA (in words),[3]; versus saliva-treated HA,significantly and profoundly depressed
same,PERCENT ADHESION COMPARED TO SALIVA-TREATED HA,[4]; [6],17%
same,adhesion of organism to treated HA (in words),[4]; versus saliva-treated HA,significantly and profoundly depressed
same,PERCENT ADHESION COMPARED TO SALIVA-TREATED HA,[5]; [6],17%
same,adhesion of organism to treated HA (in words),[5]; versus saliva-treated HA,significantly and profoundly depressed
